Results published in patent US20260207615A1, “FLUOROPYRIDOPYRIMIDINE AND FLUOROQUINAZOLINE DERIVATIES AND METHODS OF USE THEREOF” (Frontier Medicines Corporation, priority 2022, published 2026).

Target: T1, KRAS G12C and cRAF interaction (Homo sapiens, UniProt P01116, C118S/C51S/C80L/G12C)
T1 construct: truncated version comprising amino acids 1-169
Test: Inhibition of KRAS G12C and cRAF binding (AlphaScreen)
Format: biochemical
Conditions: KRAS G12C (Cys-light, aa 1-169) preloaded with GMPPNP, cRaf RBD (aa 50-131), 2 hours incubation
Procedure: The AlphaScreen technology was used to determine IC50s for compound inhibition of KRAS G12C (present as the Cys-light (C51S, C80L and C118S), truncated version comprising amino acids 1-169) and cRAF interaction. Compounds were diluted in 100% DMSO and each compound concentration was spotted at 200 nl/well onto low volume, white 384 well plates. The KRAS G12C contained a biotin-AviTag and the cRaf, as Ras-binding domain (amino acids 50-131, RBD), was GST-tagged. KRAS G12C was preloaded with the GTP analogue Guanosine 5′-[β,γ-imido]triphosphate (GMPPNP). The KRAS G12C was diluted in 25 mM Hepes, pH 7.4, 150 mM NaCl, 5 mM MgCl2, 0.01% TritonX-100 and 10 μM GMPPNP and added at 10 μl/well to compound-spotted plates resulting in a DMSO concentration of 2%. Plates were incubated for 2 hours. A mixture of RBD and the AlphaScreen streptavidin donor and glutathione acceptor beads diluted in 25 mM Hepes, pH 7.4, 150 mM NaCl, 5 mM MgCl2, 0.01% TritonX-100 and 2% DMSO was then added at 10 μl/well and incubated for 60-90 minutes before the samples were read for emission at 570 nm after excitation of the donor beads at 680 nm. All incubations were performed at room temperature. The final top compound concentration was 50 μM with 1:3 titrations for 10-point dose response curves. Final assay conditions were 0.5 nM KRAS G12C, 0.75 nM RBD and 5 μg/ml each of AlphaScreen donor and acceptor beads. IC50S were determined using nonlinear regression fit of [inhibitor] vs. response (4 parameters).
A counter assay was also set up to rule out inhibitors of the AlphaScreen technology itself. Compound plates were incubated for 2 hours as above with buffer only.
The AlphaScreen beads were added as above except biotin-AviTag-GST was substituted for the RBD. Samples were read and analyzed as above.

T1 sequence (P01116 1-169 isoform P01116-2 G12C/C51S/C80L/C118S): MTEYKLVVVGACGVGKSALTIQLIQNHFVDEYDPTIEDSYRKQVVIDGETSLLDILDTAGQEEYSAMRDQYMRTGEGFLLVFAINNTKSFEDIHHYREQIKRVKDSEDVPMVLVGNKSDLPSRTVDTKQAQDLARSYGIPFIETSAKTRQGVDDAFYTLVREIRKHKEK

Row | Structure (SMILES) | IC50 [nM]
1 | O=C(/C=C/CN1[C@@H]2CC[C@H]1COC2)N1CCN(c2nc(OC[C@@]34CCCN3C[C@H](F)C4)nc3c(F)c(-c4cccc(Cl)c4C4CC4)ncc23)CC12COC2 [Example 24, (E)-4-((1R,5S)-3-oxa-8-azabicyclo[3.2.1]octan-8-yl)-1-(8-(7-(3-chloro-2-cyclopropylphenyl)-8-fluoro-2-(((2R,7aS)-2-fluorotetrahydro-1H-pyrrolizin-7a(5H)-yl)methoxy)pyrido[4,3-d]pyrimidin-4-yl)-2-oxa-5,8-diazaspiro[3.5]nonan-5-yl) but-2-en-1-one] | < 10
2 | C=CC(=O)N1CCN(c2nc(OC[C@@]34CCCN3C[C@H](F)C4)nc3c(F)c(-c4cccc5ccc(F)c(CC)c45)ncc23)CC12COC2 [Example 45, 1-(8-(7-(8-ethyl-7-fluoronaphthalen-1-yl)-8-fluoro-2-(((2R,7aS)-2-fluorotetrahydro-1H-pyrrolizin-7a(5H)-yl)methoxy)pyrido[4,3-d]pyrimidin-4-yl)-2-oxa-5,8-diazaspiro[3.5]nonan-5-yl) prop-2-en-1-one] | < 10
3 | O=C(/C=C/CN1[C@@H]2CC[C@H]1COC2)N1CCN(c2nc(OC[C@@]34CCCN3C[C@H](F)C4)nc3c(F)c(-c4cccc5cccc(Cl)c45)ncc23)CC12COC2 [Example 4, (E)-4-((1R,5S)-3-oxa-8-azabicyclo[3.2.1]octan-8-yl)-1-(8-(7-(8-chloronaphthalen-1-yl)-8-fluoro-2-(((2R,7aS)-2-fluorotetrahydro-1H-pyrrolizin-7a(5H)-yl)methoxy)pyrido[4,3-d]pyrimidin-4-yl)-2-oxa-5,8-diazaspiro[3.5]nonan-5-yl) but-2-en-1-one] | < 10
4 | Cc1nccc(/C=C(\F)C(=O)N2CCN(c3nc(OC[C@@]45CCCN4C[C@H](F)C5)nc4c(F)c(-c5cccc6ccc(F)c(F)c56)ncc34)CC23COC3)n1 [Example 60, (Z)-1-(8-(7-(7,8-difluoronaphthalen-1-yl)-8-fluoro-2-(((2R,7aS)-2-fluorotetrahydro-1H-pyrrolizin-7a(5H)-yl)methoxy)pyrido[4,3-d]pyrimidin-4-yl)-2-oxa-5,8-diazaspiro[3.5]nonan-5-yl)-2-fluoro-3-(2-methylpyrimidin-4-yl) prop-2-en-1-one] | < 10
5 | C=CC(=O)N1CCN(c2nc(OC[C@@]34CCCN3C[C@H](F)C4)nc3c(F)c(-c4cccc5ccc(F)c(Cl)c45)ncc23)CC12COC2 [Example 33, 1-(8-(7-(8-chloro-7-fluoronaphthalen-1-yl)-8-fluoro-2-(((2R,7aS)-2-fluorotetrahydro-1H-pyrrolizin-7a(5H)-yl)methoxy)pyrido[4,3-d]pyrimidin-4-yl)-2-oxa-5,8-diazaspiro[3.5]nonan-5-yl) prop-2-en-1-one] | 10 to 100
6 | O=C(C#CCN1CCOCC1)N1CCN(c2nc(OC[C@@]34CCCN3C[C@H](F)C4)nc3c(F)c(-c4cccc5cccc(Cl)c45)ncc23)CC12COC2 [Example 16, 1-(8-(7-(8-chloronaphthalen-1-yl)-8-fluoro-2-(((2R,7aS)-2-fluorotetrahydro-1H-pyrrolizin-7a(5H)-yl)methoxy)pyrido[4,3-d]pyrimidin-4-yl)-2-oxa-5,8-diazaspiro[3.5]nonan-5-yl)-4-morpholinobut-2-yn-1-one] | 100 to 500
7 | C=CC(=O)N1CCN(c2nc(OC[C@@]34CCCN3C[C@H](F)C4)nc3c(F)c(-c4c(C)cc(F)c5[nH]ncc45)ncc23)CC12COC2 [Example 52, 1-(8-(8-fluoro-7-(7-fluoro-5-methyl-1H-indazol-4-yl)-2-(((2R,7aS)-2-fluorotetrahydro-1H-pyrrolizin-7a(5H)-yl)methoxy)pyrido[4,3-d]pyrimidin-4-yl)-2-oxa-5,8-diazaspiro[3.5]nonan-5-yl) prop-2-en-1-one] | ≥ 500
8 | CN1CC[C@@H]1/C=C/C(=O)N1CCN(c2nc(OC[C@@]34CCCN3C[C@H](F)C4)nc3c(F)c(-c4cccc(Cl)c4C(F)(F)F)ncc23)CC12COC2 [Example 76] | ≥ 500
9 | C=CC(=O)N1CCN(c2nc(OC[C@@]34CCCN3C[C@H](F)C4)nc3c(F)c(-c4cccc5ccc(F)c(F)c45)ncc23)C[C@@]12CCOC2 [Example 80] | 10 to 100
10 | C=CC(=O)N1CCN(c2nc(OC[C@@]34CCCN3C[C@H](F)C4)nc3c(F)c(-c4c(Cl)c(C)cc5[nH]ncc45)ncc23)CC12COC2 [Example 51, 1-(8-(7-(5-chloro-6-methyl-1H-indazol-4-yl)-8-fluoro-2-(((2R,7aS)-2-fluorotetrahydro-1H-pyrrolizin-7a(5H)-yl)methoxy)pyrido[4,3-d]pyrimidin-4-yl)-2-oxa-5,8-diazaspiro[3.5]nonan-5-yl) prop-2-en-1-one] | 10 to 100
11 | C=CC(=O)N1CCN(c2nc(OC[C@@]34CCCN3C[C@H](F)C4)nc3c(F)c(-c4cccc5ccc(F)c(F)c45)ncc23)CC12CCOC2 (stereo partly drawn) [Example 82] | 10 to 100
12 | CN1CC[C@@H]1/C=C/C(=O)N1CCN(c2nc(OC[C@@]34CCCN3C[C@H](F)C4)nc3c(F)c(-c4cccc5cccc(Cl)c45)ncc23)CC12COC2 [Example 37, (E)-1-(8-(7-(8-chloronaphthalen-1-yl)-8-fluoro-2-(((2R,7aS)-2-fluorotetrahydro-1H-pyrrolizin-7a(5H)-yl)methoxy)pyrido[4,3-d]pyrimidin-4-yl)-2-oxa-5,8-diazaspiro[3.5]nonan-5-yl)-3-((R)-1-methylazetidin-2-yl) prop-2-en-1-one] | 10 to 100
13 | Cc1cc(/C=C/C(=O)N2CCN(c3nc(OC[C@@]45CCCN4C[C@H](F)C5)nc4c(F)c(-c5cccc(Cl)c5C5CC5)ncc34)CC23COC3)nc(C)n1 [Example 28, (E)-1-(8-(7-(3-chloro-2-cyclopropylphenyl)-8-fluoro-2-(((2R,7aS)-2-fluorotetrahydro-1H-pyrrolizin-7a(5H)-yl)methoxy)pyrido[4,3-d]pyrimidin-4-yl)-2-oxa-5,8-diazaspiro[3.5]nonan-5-yl)-3-(2,6-dimethylpyrimidin-4-yl) prop-2-en-1-one] | ≥ 500
14 | O=C(/C=C/CN1C[C@H]2C[C@@H]1CO2)N1CCN(c2nc(OC[C@@]34CCCN3C[C@H](F)C4)nc3c(F)c(-c4cccc5ccc(F)c(F)c45)ncc23)CC12COC2 [Example 19, (E)-4-((1R,4R)-2-oxa-5-azabicyclo[2.2.1]heptan-5-yl)-1-(8-(7-(7,8-difluoronaphthalen-1-yl)-8-fluoro-2-(((2R,7aS)-2-fluorotetrahydro-1H-pyrrolizin-7a(5H)-yl)methoxy)pyrido[4,3-d]pyrimidin-4-yl)-2-oxa-5,8-diazaspiro[3.5]nonan-5-yl) but-2-en-1-one] | < 10
15 | CN(C)C/C=C/C(=O)N1CCN(c2nc(OC[C@@]34CCCN3C[C@H](F)C4)nc3c(F)c(-c4cccc5cccc(Cl)c45)ncc23)CC12COC2 [Example 25, (E)-1-(8-(7-(8-chloronaphthalen-1-yl)-8-fluoro-2-(((2R,7aS)-2-fluorotetrahydro-1H-pyrrolizin-7a(5H)-yl)methoxy)pyrido[4,3-d]pyrimidin-4-yl)-2-oxa-5,8-diazaspiro[3.5]nonan-5-yl)-4-(dimethylamino)but-2-en-1-one] | 10 to 100
16 | Cc1nccc(/C=C/C(=O)N2CCN(c3nc(OC[C@@]45CCCN4C[C@H](F)C5)nc4c(F)c(-c5cccc6ccc(F)c(F)c56)ncc34)CC23COC3)n1 [Example 5, (E)-1-(8-(7-(7,8-difluoronaphthalen-1-yl)-8-fluoro-2-(((2R,7aS)-2-fluorotetrahydro-1H-pyrrolizin-7a(5H)-yl)methoxy)pyrido[4,3-d]pyrimidin-4-yl)-2-oxa-5,8-diazaspiro[3.5]nonan-5-yl)-3-(2-methylpyrimidin-4-yl) prop-2-en-1-one] | 10 to 100
17 | C#Cc1c(F)ccc2cccc(-c3ncc4c(N5CCN(C(=O)/C=C/CN6C[C@H]7C[C@@H]6CO7)C6(COC6)C5)nc(OC[C@@]56CCCN5C[C@H](F)C6)nc4c3F)c12 [Example 46, (E)-4-((1R,4R)-2-oxa-5-azabicyclo[2.2.1]heptan-5-yl)-1-(8-(7-(8-ethynyl-7-fluoronaphthalen-1-yl)-8-fluoro-2-(((2R,7aS)-2-fluorotetrahydro-1H-pyrrolizin-7a(5H)-yl)methoxy)pyrido[4,3-d]pyrimidin-4-yl)-2-oxa-5,8-diazaspiro[3.5]nonan-5-yl) but-2-en-1-one] | < 10
18 | C#Cc1c(F)ccc2cccc(-c3ncc4c(N5CCN(C(=O)/C=C/CN6[C@@H]7CC[C@H]6COC7)C6(COC6)C5)nc(OC[C@@]56CCCN5C[C@H](F)C6)nc4c3F)c12 [Example 34, (E)-4-((1R,5S)-3-oxa-8-azabicyclo[3.2.1]octan-8-yl)-1-(8-(7-(8-ethynyl-7-fluoronaphthalen-1-yl)-8-fluoro-2-(((2R,7aS)-2-fluorotetrahydro-1H-pyrrolizin-7a(5H)-yl)methoxy)pyrido[4,3-d]pyrimidin-4-yl)-2-oxa-5,8-diazaspiro[3.5]nonan-5-yl) but-2-en-1-one] | < 10
